We go through 31 compounds from US5070210A, “Novel ketenimines as intermediates for insecticides” (ICI Americas Inc., priority 1990, dated 1991).

Type in all cases: in vivo
Experiment [1] concerns Housefly [Musca domestica]. As to the kind of experiment: Housefly insecticidal test. Particulars: μg per 25 female flies; mortality after 48 hours. In outline:
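Dose range started at 100 μg per 25 female flies and went downward. Insects (1-2 days old) contacted a dried acetone/peanut-oil deposit in dishes; LC50 values come from dosage-mortality curves at 48 h.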

The subject of experiment [2] is Tobacco Budworm [Heliothis virescens (Fabricius)] eggs. In words: Tobacco budworm egg test. Conditions: 2-day old eggs, percent in solution. Put shortly: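 Mortality of dipped eggs served as read-out, recorded after untreated controls hatched and began feeding. Treatments used acetone solutions from 0.1% downward, with eggs incubated at 78° F; LC50 is expressed as percent of compound in the solution.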

For experiment [3], the system named is Cabbage Looper [Trichoplusia ni (Hubner)]. In words: Cabbage looper insecticidal test. Conditions: second-instar larvae, percent in solution; 3-5 days. Put shortly: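 Steps: dilute compound in 50-50 acetone-water from 0.1% downward; immerse cotyledon pieces 2-3 s and dry; place in humid petri dishes with five second-instar larvae; record mortality at 3-5 days. Dosage-mortality curves yield LC50 as percent in solution.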

Experiment [4] deals with Maize weevil [Sitophilus Zeamais (Motschulsky)]. As to the kind of experiment: Maize weevil insecticidal test. Conditions: adult weevils, percent in solution; 48 hours. The procedure:
The compounds in Tables 1 and 2 above were tested for insecticidal activity using the following testing procedures. LC50 values, based on the results of these tests and calculated according to dosage-mortality curves, are expressed in Table 3.
Maize weevil [Sitophilus Zeamais (Motschulsky)]:
Test compounds were diluted in a 50:50 acetone:water solution. Four corn seeds [Zea mays (L.)] which had been immersed in test solutions for 2-3 seconds and allowed to dry were placed in containers together with 10 adult weevils. The containers were covered and kept at a temperature of about 25° C. Mortality was recorded after 48 hours. Test concentrations ranged from 0.01% down to that at which 50% mortalilty occurred. The LC50 values are expressed below in Table 3 under the heading "MW" in terms of percent of the test compound in solution.

Each structure is given as a SMILES string.

Turning to `Cc1ccc(Oc2cccc(COC(=Nc3ccc(C(C)(C)C)cc3)C(C)C)c2)cc1` [Compound 344], the “LC50, HF” value in experiment [1] was > 100 µg. For the same compound, in experiment [2], the “LC50, TBW, E (TBW-E)” value was > 0.1%. Moreover, in experiment [3], the “LC50, CL” value stood at 0.024%. The “LC50, MW” value in experiment [4] is given as > 0.01%.
For `COc1ccc(Oc2cccc(COC(=Nc3ccc(C(C)(C)C)cc3)C(C)C)c2)cc1` [Compound 345], in that order: > 100 µg, > 0.1%, 0.018% and > 0.01%.
Regarding `CCOc1ccc(N=C(OCc2cccc(Oc3ccccc3)c2)C(C)C)cc1Cl` [Compound 368], the “LC50, HF” value in experiment [1] is < 100 µg. Besides, the “LC50, TBW, E (TBW-E)” value in experiment [2] stood at 0.04%. Besides, the “LC50, CL” value in experiment [3] was found to be 0.002%. The “LC50, MW” value in experiment [4] is reported as > 0.01%.
Regarding `CCOc1ccc(N=C(OCc2cccc(Oc3ccccc3)c2)C(C)C)cc1` [Compound 371], the “LC50, HF” value in experiment [1] was < 100 µg. The “LC50, TBW, E (TBW-E)” value in experiment [2] is given as > 0.1%. The “LC50, CL” value in experiment [3] amounted to 0.0022%. Also, the “LC50, MW” value in experiment [4] is reported as > 0.01%.
On the same counts, the results for `CCOc1ccc(N=C(OCc2ccc(F)c(Oc3ccc(Cl)cc3)c2)C(C)C)cc1` [Compound 372] are > 100 µg, > 0.1%, > 0.1% and > 0.01%.
For `CCOc1ccc(N=C(OCc2ccc(F)c(Oc3ccccc3)c2)C(C)C)cc1` [Compound 373], in that order: < 100 µg, > 0.1%, > 0.1% and > 0.01%.
For the compound `CC(C)C(=Nc1ccc(I)c(Cl)c1)OCc1cccc(Oc2ccc(F)cc2)c1` [Compound 374], the “LC50, HF” value in experiment [1] was < 100 µg. In addition, in experiment [2], the “LC50, TBW, E (TBW-E)” value was 0.02%. In experiment [3], the “LC50, CL” value was found to be 0.00058%. For the same compound, the “LC50, MW” value in experiment [4] is > 0.01%.
For `CC(C)C(=Nc1ccc(F)c(Br)c1)OCc1ccc(F)c(Oc2ccc(Cl)cc2)c1` [Compound 379], in that order: < 100 µg, 0.02%, 0.00075% and > 0.01%.
For `CC(C)C(=Nc1ccc(Br)c(Br)c1)OCc1ccc(F)c(Oc2ccc(F)cc2)c1` [Compound 383], in that order: < 100 µg, 0.038%, 0.00029% and > 0.01%.
On the same counts, the results for `CC(C)C(=Nc1ccc(Br)c(Br)c1)OCc1ccc(F)c(Oc2ccccc2)c1` [Compound 384] are < 100 µg, 0.025%, > 0.1% and > 0.01%.
With `CC(C)C(=Nc1ccc(I)c(Cl)c1)OCc1ccc(F)c(Oc2ccc(F)cc2)c1` [Compound 385], in experiment [1], the “LC50, HF” value was < 100 µg. Further, the “LC50, TBW, E (TBW-E)” value in experiment [2] is recorded as > 0.1%. Besides, the “LC50, CL” value in experiment [3] was > 0.1%. Also, the “LC50, MW” value in experiment [4] is > 0.01%.
As for `CC(C)C(=Nc1cccc(Br)c1)OCc1ccc(F)c(Oc2ccc(Cl)cc2)c1` [Compound 386], the “LC50, HF” value in experiment [1] was < 100 µg. Moreover, the “LC50, TBW, E (TBW-E)” value in experiment [2] is recorded as > 0.1%. For the same compound, the “LC50, CL” value in experiment [3] came to 0.0012%. For the same compound, the “LC50, MW” value in experiment [4] is recorded as > 0.01%.
Consider `CC(C)C(=Nc1ccc(Cl)c(C(F)(F)F)c1)OCc1ccc(F)c(Oc2ccccc2)c1` [Compound 388], for which the “LC50, HF” value in experiment [1] is < 100 µg. The “LC50, TBW, E (TBW-E)” value in experiment [2] is listed as > 0.1%. In experiment [3], the “LC50, CL” value amounted to 0.0012%. Besides, the “LC50, MW” value in experiment [4] was > 0.01%.
For `CC(C)C(=Nc1cccc(I)c1)OCc1cccc(Oc2ccc(Cl)cc2)c1` [Compound 389], in that order: < 100 µg, > 0.1%, 0.00069% and > 0.01%.
For `CC(C)C(=Nc1cccc(Cl)c1)OCc1ccc(F)c(Oc2ccc(Cl)cc2)c1` [Compound 390], in that order: < 100 µg, 0.045%, 0.0021% and > 0.01%.
On the same counts, the results for `CC(C)C(=Nc1ccc(C#N)cc1)OCc1ccc(F)c(Oc2ccc(Cl)cc2)c1` [Compound 392] are < 100 µg, 0.039%, 0.00034% and > 0.01%.
As to `CC(C)C(=Nc1ccc(C#N)cc1)OCc1cccc(Oc2ccc(Cl)cc2)c1` [Compound 393], the “LC50, HF” value in experiment [1] is < 100 µg. The “LC50, TBW, E (TBW-E)” value in experiment [2] was > 0.1%. The “LC50, CL” value in experiment [3] was determined as 0.00037%. For the same compound, in experiment [4], the “LC50, MW” value is on record as > 0.01%.
Consider `CC(C)C(=Nc1ccc(C#N)cc1)OCc1ccc(F)c(Oc2ccc(F)cc2)c1` [Compound 394], for which, in experiment [1], the “LC50, HF” value is < 100 µg. Moreover, the “LC50, TBW, E (TBW-E)” value in experiment [2] was found to be 0.05%. For the same compound, the “LC50, CL” value in experiment [3] is 0.00025%. In addition, the “LC50, MW” value in experiment [4] is > 0.01%.
On the same counts, the results for `CC(C)C(=Nc1ccc(F)c(Cl)c1F)OCc1ccc(F)c(Oc2ccc(Cl)cc2)c1` [Compound 395] are 8.6 µg, 0.018%, < 0.1% and 0.004%.
For `Cc1cc(N=C(OCc2ccc(F)c(Oc3ccc(F)cc3)c2)C(C)C)ccc1F` [Compound 396], in that order: < 100 µg, < 0.1%, 0.0017% and > 0.01%.
For `Cc1cc(N=C(OCc2cccc(Oc3ccc(Cl)cc3)c2)C(C)C)ccc1F` [Compound 397], in that order: < 100 µg, < 0.1%, 0.0019% and > 0.01%.
For `CC(C)C(=Nc1ccc(F)c(Br)c1)OCc1cccc(Oc2ccc(Cl)cc2)c1` [Compound 398], the “LC50, HF” value in experiment [1] is < 100 µg. Further, the “LC50, TBW, E (TBW-E)” value in experiment [2] is < 0.1%. Besides, in experiment [3], the “LC50, CL” value is given as < 0.1%. Also, in experiment [4], the “LC50, MW” value is recorded as > 0.01%.
In the case of `Cc1cc(N=C(OCc2ccc(F)c(Oc3ccc(Cl)cc3)c2)C(C)C)ccc1F` [Compound 399], the “LC50, HF” value in experiment [1] was < 100 µg. Moreover, in experiment [2], the “LC50, TBW, E (TBW-E)” value is recorded as 0.025%. Further, the “LC50, CL” value in experiment [3] is 0.0012%. Besides, the “LC50, MW” value in experiment [4] is > 0.01%.
Regarding `Cc1cc(N=C(OCc2ccc(F)c(Oc3ccccc3)c2)C(C)C)ccc1F` [Compound 400], the “LC50, HF” value in experiment [1] was < 100 µg. For the same compound, in experiment [2], the “LC50, TBW, E (TBW-E)” value is given as 0.025%. Further, in experiment [3], the “LC50, CL” value is given as 0.0007%. In experiment [4], the “LC50, MW” value is on record as > 0.01%.
On the same counts, the results for `Cc1cccc(N=C(OCc2ccc(F)c(Oc3ccc(Cl)cc3)c2)C(C)C)c1` [Compound 401] are < 100 µg, 0.04%, 0.0017% and > 0.01%.
For the compound `Cc1ccc(N=C(OCc2cccc(Oc3ccc(F)cc3)c2)C(C)C)cc1Cl` [Compound 402], the “LC50, HF” value in experiment [1] is < 100 µg. In experiment [2], the “LC50, TBW, E (TBW-E)” value is given as > 0.1%. The “LC50, CL” value in experiment [3] is listed as > 0.1%. Besides, the “LC50, MW” value in experiment [4] was > 0.01%.
Take `Cc1ccc(N=C(OCc2cccc(Oc3ccc(Cl)cc3)c2)C(C)C)cc1Cl` [Compound 403]: the “LC50, HF” value in experiment [1] is < 100 µg. In addition, the “LC50, TBW, E (TBW-E)” value in experiment [2] is > 0.1%. Besides, in experiment [3], the “LC50, CL” value is on record as > 0.1%. Besides, the “LC50, MW” value in experiment [4] was > 0.01%.
Consider `Cc1ccc(N=C(OCc2ccc(F)c(Oc3ccc(Cl)cc3)c2)C(C)C)cc1Cl` [Compound 404], for which the “LC50, HF” value in experiment [1] is < 100 µg. Besides, the “LC50, TBW, E (TBW-E)” value in experiment [2] was found to be 0.025%. In experiment [3], the “LC50, CL” value is > 0.1%. In addition, the “LC50, MW” value in experiment [4] was > 0.01%.
Consider `Cc1cccc(N=C(OCc2cccc(Oc3ccc(F)cc3)c2)C(C)C)c1` [Compound 405], for which, in experiment [1], the “LC50, HF” value was < 100 µg. Further, the “LC50, TBW, E (TBW-E)” value in experiment [2] is reported as > 0.1%. In addition, the “LC50, CL” value in experiment [3] is reported as > 0.1%. The “LC50, MW” value in experiment [4] is on record as > 0.01%.
Consider `Cc1ccc(N=C(OCc2ccc(F)c(Oc3ccc(Cl)cc3)c2)C(C)C)cc1C` [Compound 406], for which, in experiment [1], the “LC50, HF” value was < 100 µg. Moreover, the “LC50, TBW, E (TBW-E)” value in experiment [2] was < 0.1%. In addition, the “LC50, CL” value in experiment [3] is > 0.1%. Further, the “LC50, MW” value in experiment [4] was > 0.01%.
For `Cc1cc(N=C(OCc2ccc(F)c(Oc3ccc(Cl)cc3)c2)C(C)C)ccc1Br` [Compound 407], in that order: > 100 µg, 0.05%, > 0.1% and > 0.01%.
